US10464901B2, “Composition including benzene diamine derivative for preventing or treating degenerative brain diseases” (UNIST(ULSAN NATIONAL INSTITUTE OF SCIENCE AND TECHNOLOGY), priority 2017, dated 2019)

What was measured:
Aβ40 and Aβ42 = test: Aβ aggregation inhibition in the presence or absence of metals, overall statements (FIG. 1); type: biochemical; settings: two kinds of Aβ (Aβ40, Aβ42)
Description: (§1) It was examined whether the benzene diamine derivatives of the present disclosure have inhibitory effects on Aβ aggregation. Aβ has two isoforms, and therefore, effects on Aβ40 and Aβ42 were examined, respectively. When metals are involved in protein folding, the probability of abnormal folding is high. In this case, the probability of Aβ aggregate formation is further increased.
(§2) In order to perform molecular analysis of Aβ aggregation-inhibitory effects of the benzene diamine derivatives of the present disclosure, gel electrophoresis and Western blotting were performed by using anti-Aβ antibody (6E10). As a control group, compound 1
(§3) In detail, each sample (10 μl) was separated on a 10-20% Tris-tricine gel (Invitrogen, Grand Island, N.Y., USA). After separation, the proteins were transferred onto a nitrocellulose membrane and blocked with bovine serum albumin (BSA, 3% w/v, Sigma-Aldrich, St Louis, Mo., USA) in Tris-buffered saline (TBS) containing 0.1% Tween-20 (TBS-T) at room temperature for 2 hours or at 4° C. overnight. The membrane was incubated in a 2% BSA (w/v in TBS-T) solution, together with anti-Aβ antibody (6E10, 1:2,000, Covance, Princeton, N.J., USA), at room temperature for 4 hours or at 4° C. overnight. The membrane was washed with TBS-T (3×, 10 min), and a secondary mouse antibody (1:5,000 in 2% BSA w/v in TBS-T; Cayman Chemical Company, Ann Arbor, Mich., USA) was added thereto, followed by incubation at room temperature for 1 hour. Thermo Scientific SuperSignal West Pico Chemiluminescent Substrate (Thermo Scientific, Rockford, Ill., USA), Biosesang ECL Plus kit (Biosesang, Gyeonggi-do, Republic of Korea), or homemade ECL kit53 were used for visualization, and ChemiDoc MP Imaging System (Bio-Rad, Hercules, Calif., USA) was used for detection.

[1] = Antioxidant effect: free organic radical-scavenging activity (ABTS) using cell lysate; type: biochemical; settings: Table 1 summary of Example 3; symbols not defined
Description: It was examined whether the benzene diamine derivatives of the present disclosure have an antioxidant effect. It is known that reactive oxygen species induces oxidative stress in neuronal cells to cause neuronal cell death and causes protein misfolding to induce formation of Aβ aggregates. Therefore, compounds having antioxidant effects may be candidates for preventing or treating dementia.
Free organic radical-scavenging activity of the compound was determined according to a protocol of Cayman Chemical Company (Ann Arbor, Mich., USA) with slight modifications. For antioxidant analysis using a cell lysate, cells were seeded in a 6-well plate, and cultured until they reached 80-90% confluence. A cell lysate was prepared according to a known method, washed with a cold phosphate buffer solution (PBS; pH 7.4, GIBCO), and then harvested. Cell pellet was produced by centrifugation (2,000 g, 4° C., 10 min). This pellet was sonicated (5 sec pulse, 20 sec interval, three times) in 2 ml of cold assay buffer S13 (5 mM potassium phosphate, pH 7.4; 0.9% NaCl; 0.1% glucose) on ice. A cell lysate was centrifuged at 4° C. for 10 minutes at 5,000 g. A supernatant was removed, and left on ice until use. To the cell lysate supernatant (10 μl), the compound, metmyoglobin, ABTS (2,2′-azino-bis-3-ethylbenzothiazoline-6-sulfonic acid), and hydrogen peroxide were sequentially added. The mixture was incubated on a shaker at room temperature for 5 minutes, and absorbance at 750 nm was measured. The compound at a final concentration of 45, 90, 135, 180, 225, or 330 μM and Trolox (6-hydroxy-2,5,7,8-tetramethyl-chroman-2-carboxylic acid, dissolved in EtOH) were used. Antioxidant activity was calculated according to the measured absorbance [% inhibition=100×(A0−A)/A0, A0 represents absorbance of the supernant of the cell lysate]. Each measurement was repeated in triplicate.

[2] = test system: human neuroblastoma cell line SK-N-BE(2)-M17 (M17); test: Cytotoxicity-inhibitory effect, MTT cell viability with Aβ with or without metals; type: cell-based; settings: M17 cells, irrespective of Aβ isoforms and metals, FIG. 4
Description: It was examined whether the benzene diamine derivatives of the present disclosure have cytotoxicity-inhibitory effect. Aβ aggregation and reactive oxygen species may cause cytotoxicity in neuronal cells, resulting in neuronal cell death.
In detail, human neuroblastoma cell line SK-N-BE(2)-M17 (M17) (ATCC, Manassa, Va., USA) was cultured in a 1:1 minimum essential medium (MEM; GIBCO, Grand Island, N.Y., USA), Ham's F12K Kaighn's Modification Media (F12K; GIBCO) supplemented with 10% (v/v) fetal bovine serum (FBS; Atlanta Biologicals, Flowery Branch, Ga., USA), 100 U/mL penicillin (GIBCO), and […] streptomycin (GIBCO). M17 cells were seeded in a 96-well plate (150,000 in 100 μl per well), and treated with various concentrations of the compound (0-50 μM, 1% v/v DMSO) in the presence or absence of CuCl2 or ZnCl2 (a metal/ligand ratio of 1:1 or 1:2), and in the presence or absence of Aβ 40 (Aβ:metal:compound=10:10:20 μM). After incubation at 37° C. for 24 hours, 25 μl of MTT (3-(4,5-dimethylthiazol-2-yl)-2,5-diphenyltetrazolium bromide) (5 mg/mL in PBS, pH 7.4) (GIBCO) was added to each well, and each plate was incubated at 37° C. for 4 hours. […] Absorbance at 600 nm was measured by using a microplate reader.

Cu(II)-Aβ = test: Aβ aggregation inhibition, gel electrophoresis and Western blotting with anti-Aβ antibody (6E10); type: biochemical; settings: Table 1 summary of Example 2; symbols not defined
Description: as §1, §2, §3

Metal-free Aβ = test: as above; type: biochemical; settings: Table 1 summary of Example 2; symbols not defined
Description: as §1, §2, §3

Zn(II)-Aβ = test: as above; type: biochemical; settings: Table 1 summary of Example 2; symbols not defined
Description: as §1, §2, §3

PAMPA-BBB analysis = type: in vitro ADME
Description: […] PAMPA-BBB analysis was performed by using a PAMPA Explorer kit (pION, Inc. Billerica, Mass., USA) according to the manufacture's protocol with slight modifications. […] The prepared solution was put in each well of a donor plate (200 μl, repeated 12 times). A polyvinylidene fluoride (PVDF, […]) filter membrane on an acceptor plate was coated with BBB-1 lipid formulation (5 μl, pION). The acceptor plate was placed on top of the donor plate to generate a “sandwich”. Brain sink buffer (BSB, 200 μl, pION) was added to each well of the acceptor plate. The sandwich-shaped plate was incubated for 4 hours at room temperature without stirring. UV-vis spectra of the solutions in the reference, acceptor, and donor plates were measured using a microplate reader. A PAMPA Explorer software [v. 3.8 (pION)] was used to calculate the −log Pe values for compounds. CNS±designations were assigned by comparison with compounds that were identified in previous reports.

SMILES | inhibitory effect on Aβ aggregation (Aβ40 and Aβ42) | Reactive oxygen species (antioxidant effect) [1] | effect in cytotoxicity-inhibition test (worded result) [2] | Cu(II)-Aβ (inhibitory effect on Aβ aggregation) (Cu(II)-Aβ) | Metal-free Aβ (inhibitory effect on Aβ aggregation) (Metal-free Aβ) | Zn(II)-Aβ (inhibitory effect on Aβ aggregation) (Zn(II)-Aβ) | PAMPA-BBB permeability class (PAMPA-BBB analysis; 50 μM, incubation 4 hrs, U.V) | Papp at 4 h, 50 μM (PAMPA-BBB analysis; PAMPA, pH 7.4, 50 μM, incubation 4 hrs, U.V, read-out: Pe) [×10⁻⁶ cm/s] | CNS± designation (PAMPA-BBB analysis; assigned by comparison with compounds identified in previous reports)
c1ccc(NCc2ccccn2)cc1 [Compound 1, reference compound] | did not show inhibitory effect on Aβ aggregation under any conditions | No effect | did not show excellent Aβ aggregation-inhibitory effect | – | – | – | – | – | –
Nc1ccc(NCc2ccc(F)cn2)cc1 [Compound 3, N^1-((5-fluoropyridin-2-yl)methyl)benzene-1,4-diamine] | showed inhibitory effect on both two kinds of Aβ, irrespective of the kind and presence of metals | ◯ | – | ◯ | ◯ | ◯ | – | – | –
CN(C)c1ccc(NCc2nccn2C)cc1 [Compound 4, N^1,N^1-dimethyl-N^4-((1-methyl-1H-imidazol-2-yl)methyl)benzene-1,4-diamine] | showed inhibitory effect on Aβ with metals | ◯ | – | ◯ | – | ◯ | – | – | –
CN(C)c1ccc(NCCS)cc1 [Compound 5, 2-((4-(dimethylamino)phenyl)amino)ethane-1-thiol] | showed inhibitory effect on both two kinds of Aβ, irrespective of the kind and presence of metals | ◯ | – | ◯ | ◯ | ◯ | – | – | –
CC(=O)[C@H]1CC[C@H]2[C@@H]3CCC4=CC(=O)CC[C@]4(C)[C@H]3CC[C@]12C [Progesterone, reference compound] | – | – | – | – | – | – | High | 46.7 | (CNS+)
